Source: patent publication US20040010001A1, “Methods and compositions for modulating cell proliferation and cell death” (priority 1999, published 2004)
Where a name gives a salt, the structure may show the parent alone. Read-outs that look alike come from different tables or passages of the source.

System: Human prostate PC3 tumor cells
Assay: aFGF/bFGF-induced resistance and reversal by suramin, sulforhodamine B assay
Assay type: cell-based
Experimental: The experimental conditions are described briefly below. […] Cell number was measured using the sulforhodamine B assay which measures the total protein concentration. […] The FGF-induced resistance was dependent on the FGF concentrations, with a higher resistance at higher FGF concentrations.

[1] = Homo sapiens, read-out: IC50, Control (drug treatment only, without FGF treatment), No suramin, drug 96 hours
[2] = Homo sapiens, read-out: IC50, aFGF 0.3 ng/ml + bFGF 1 ng/ml, No suramin, FGF pretreatment 96 hours, drug 96 hours
[3] = Homo sapiens, read-out: IC50, aFGF 1 ng/ml + bFGF 3 ng/ml, No suramin, FGF pretreatment 96 hours, drug 96 hours
[4] = no suramin, relative to control
[5] = read-out: IC50, Control (without FGF treatment), Suramin, 15 μM, drug 96 hours with 15 μM suramin
[6] = read-out: IC50, aFGF 0.3 ng/ml + bFGF 1 ng/ml, With suramin, FGF pretreatment 96 hours, drug 96 hours with 15 micromolar suramin
[7] = read-out: IC50, aFGF 1 ng/ml + bFGF 3 ng/ml, With suramin, FGF pretreatment 96 hours, drug 96 hours with 15 micromolar suramin
[8] = Homo sapiens, 96 h, read-out: IC50, Control (drug treatment only, without FGF treatment), No suramin
[9] = Homo sapiens, 96 h, read-out: IC50, aFGF 0.3 ng/ml + bFGF 1 ng/ml, No suramin
[10] = Homo sapiens, 96 h, read-out: IC50, aFGF 1 ng/ml + bFGF 3 ng/ml, No suramin
[11] = read-out: IC50, Control (without FGF treatment), Suramin, 15 μM
[12] = read-out: IC50, aFGF 0.3 ng/ml + bFGF 1 ng/ml, With suramin
[13] = read-out: IC50, aFGF 1 ng/ml + bFGF 3 ng/ml, With suramin
[14] = read-out: IC50, Control (drug treatment only, without FGF treatment), No suramin, drug 96 hours
[15] = read-out: IC50, aFGF 0.3 ng/ml + bFGF 1 ng/ml, No suramin, FGF pretreatment 96 hours, drug 96 hours
[16] = read-out: IC50, aFGF 1 ng/ml + bFGF 3 ng/ml, No suramin, FGF pretreatment 96 hours, drug 96 hours

Compound	IC50 [1] [µM]	IC50 [2] [µM]	IC50 [3] [µM]	IC50 [5] [µM]	IC50 [6] [µM]	IC50 [7] [µM]	Resistance, Folds, aFGF 0.3 ng/ml + bFGF 1 ng/ml [4] [Folds]	Resistance, Folds, aFGF 1 ng/ml + bFGF 3 ng/ml [4] [Folds]	Resistance, Folds, aFGF 0.3 ng/ml + bFGF 1 ng/ml [Folds]	Resistance, Folds, aFGF 1 ng/ml + bFGF 3 ng/ml [Folds]	IC50 [8] [µM]	IC50 [9] [µM]	IC50 [10] [µM]	IC50 [11] [µM]	IC50 [12] [µM]	IC50 [13] [µM]	IC50 [14] [µM]	IC50 [15] [µM]	IC50 [16] [µM]
N[C@@H](CN(O)N=O)C(=O)O [Alanosine]	2.06	4.18	7.08	2.15	2.4	2.12	2.03	3.44											
CN(C)/N=N/c1[nH]cnc1C(N)=O [Dacarbazine]	36.6	53.7	108	37.6	32.4	39.7	1.47	2.95											
CN(Cc1cnc2nc(N)nc(N)c2n1)c1ccc(C(=O)N[C@@H](CCC(=O)O)C(=O)O)cc1 [Methotrexate]	32.1	60.6	80.5	28.8	30.6	33.7	1.89	2.51											
S=P(N1CC1)(N1CC1)N1CC1 [Thiotepa]									4.96	8.61	3.85	19.1	33.2	4.07	4.09	4.17			
O=NN(CCCl)C(=O)NCCCl [BCNU]	33.5	52.2	75.6	34.2	36.5	33.3	1.56	2.26											
N[C@H](C(=O)O)[C@@H]1CC(Cl)=NO1 [Acivicin]	1.58	3.34	5.52	1.28	1.65	1.63	2.11	3.49											
CC[C@]1(O)C[C@H]2CN(CCc3c([nH]c4ccccc34)[C@@](C(=O)OC)(c3cc4c(cc3OC)N(C=O)[C@H]3[C@@](O)(C(=O)OC)[C@H](OC(C)=O)[C@]5(CC)C=CCN6CC[C@]43[C@@H]65)C2)C1 [Vincristine]	0.00658			0.00682			4.00	6.77											
N.N.O=C([O-])C1(C(=O)[O-])CCC1.[Pt+2] [Carboplatin]				2.11	2.29	2.31	1.68	4.04									2.25	3.79	9.1
O=C(O)CC(NC(=O)CP(=O)(O)O)C(=O)O [PALA, N-Phosphoracetyl-L-Asparate]									1.06	1.21	241	255	292	249	236	201			
O=C1c2c(O)ccc(O)c2C(=O)c2c(NCCNCCO)ccc(NCCNCCO)c21 [Mitoxantrone]	0.18	0.33	0.53	0.16			1.83	2.94											
CC(O)CCC(=O)c1ccoc1 (centres unmarked) [4-Ipomeanol]				4510	5040	3930	0.92	1.25									4110	3780	5130
NCCCNc1ccc2c3c(nn2CCNCCO)-c2c(O)ccc(O)c2C(=O)c13 [Piroxantrone Hydrochloride]	0.34	0.81	1.28	0.32	0.33	0.28	2.38	3.77											
NC(=O)c1csc([C@@H]2O[C@H](CO)[C@@H](O)[C@H]2O)n1 [Tiazofurin]	7.5	14.6	19.2	7.9	7.25	6.15	1.94	2.57											
Nc1ncn([C@H]2C[C@H](O)[C@@H](CO)O2)c(=O)n1 [5-Aza 2′-deoxycytidine]	6.63	14	26.3	6.14	6.54	6.39	2.12	3.96											
COc1cc([C@@H]2c3cc4c(cc3[C@@H](O[C@@H]3O[C@@H]5CO[C@@H](C)O[C@H]5[C@H](O)[C@H]3O)[C@H]3COC(=O)[C@H]23)OCO4)cc(OC)c1O [Etoposide]	1.84	2.34	3.4	1.75	1.6	1.61	1.27	1.85											
CC[C@@]1(O)C(=O)OCc2c1cc1n(c2=O)Cc2cc3c(CN(C)C)c(O)ccc3nc2-1 [Topotecan]	0.0222	0.0311	0.0539	0.0217	0.0208	0.021	1.40	2.43											
Dihydrolenperone				28.1	26.1	23.9	1.81	3.37									24.6	44.5	82.9

More lines, main results first:

IC50 [1] [µM]	IC50 [2] [µM]	IC50 [3] [µM]	IC50 [5] [µM]	IC50 [6] [µM]	IC50 [7] [µM]	Compound	Resistance, Folds, aFGF 0.3 ng/ml + bFGF 1 ng/ml [4] [Folds]	Resistance, Folds, aFGF 1 ng/ml + bFGF 3 ng/ml [4] [Folds]	Resistance, Folds, aFGF 0.3 ng/ml + bFGF 1 ng/ml [Folds]	Resistance, Folds, aFGF 1 ng/ml + bFGF 3 ng/ml [Folds]	IC50 [8] [µM]	IC50 [9] [µM]	IC50 [10] [µM]	IC50 [11] [µM]	IC50 [12] [µM]	IC50 [13] [µM]	IC50 [14] [µM]	IC50 [15] [µM]	IC50 [16] [µM]
0.35	0.46	0.65	0.36		0.34	Nc1nc(Cl)nc2c1ncn2[C@H]1C[C@H](O)[C@@H](CO)O1 [Cladribine]	1.31	1.86											
			22.7	19	21	Nc1ncnc2c1ncn2[C@@H]1O[C@H](CO)[C@@H](O)[C@@H]1O [Adenosine arabinoside (Ara-A), Adenosine arabinoside]	1.56	2.13									21.5	33.6	45.7
0.28	0.44	0.7		0.33	0.29	O=c1[nH]c(=O)n([C@@H]2O[C@H](CO)[C@@H](O)[C@H]2O)cc1F [5-Fluorouridine]	1.57	2.50											
0.00684	0.00961	0.0131	0.00695	0.00612	0.00599	Nc1ccn([C@@H]2O[C@H](CO)[C@@H](O)C2(F)F)c(=O)n1 [Gemcitabine]	1.41	1.91											
0.00588	0.00903	0.0123	0.00711	0.0066	0.00575	O=c1[nH]c(=O)n([C@H]2C[C@H](O)[C@@H](CO)O2)cc1F [5-fluorodoeoxyuridine]	1.54	2.09											
3.38	4.07	11.1	3.83	3.65	3.8	NC(=O)c1[nH]nc([C@@H]2O[C@H](CO)[C@@H](O)[C@H]2O)c1O [Pyrazofurin]	1.20	3.27											
0.00445	0.0119	0.0312	0.00505		0.0043	CC(=O)[C@]1(O)Cc2c(O)c3c(c(O)c2[C@@H](O[C@H]2C[C@H](N)[C@H](O)[C@H](C)O2)C1)C(=O)c1ccccc1C3=O [Idarubicin]	2.67	7.01											
			0.46	0.42	0.45	Nc1ccn([C@@H]2O[C@H](CO)[C@@H](O)[C@@H]2O)c(=O)n1 [Cytarabine/Ara-C, Cytarabine]	3.26	8.41									0.39	1.27	3.26
